From publication PMC9843700 (Nature biotechnology, 2021)

Experiments:
[1] = tested on: SARS CoV-2 (USA_WA1/2020); assay type: cell-based
[2] = tested on: cell viability; test: ATP content assay for cell viability and compound cytotoxicity
[3] = tested on: Ebola virus (EBOV/May-eGFP); test: microbe, parasite or virus in culture; assay type: cell-based; conditions: Zaire ebolavirus, read-out: IC50, EBOV infection inhibition

## Cc1cccc(C=NNc2cc(N3CCOCC3)nc(N3CCOCC3)n2)c1 [MLS000699212-03, Benzaldehyde, 3-methyl-, 2-(2,6-di-4-morpholinyl-4-pyrimidinyl) hydrazone]
[1]
  selectivity index (SI): 28
[1]; read-out: IC50, SARS-CoV-2 CPE assay
  IC50: 0.5 µM
[2]; maximal effect
  inhibition of cell viability (slight cytotoxicity): 55%
[2]; read-out: cytotoxicity IC50 (cell viability), counter assay to CPE
  IC50: 14 µM

## CC(C(O)c1ccccc1)N(C)CCOC(c1ccccc1)c1ccccc1 (stereo not drawn) [difeterol]
[3]
  IC50: ≤ 5 µM

## CCOC(=O)c1c(CSc2ccccc2)n(C)c2cc(Br)c(O)c(CN(C)C)c12 [umifenovir]
[3]
  IC50: ≤ 5 µM
